We go through one substance from patent publication US20040137085A1, “Treatment of HIV infection with humic acid” (priority 1993, published 2004).

The subject of one experiment is LBRM-33 Cells. Description: Production of IL-2 by LBRM-33 T lymphoma cells. Format: cell-based. Here is the method: (§1) Typically, peripheral blood lymphocytes (PBL) from normal donors are incubated (2×10^6 cells/ml) in RPMI-1640 medium supplemented with 4 mM glutamine, 0.1 mM nonessential amino acids, 1 mM sodium pyruvate, 10 mM HEPES and 10% FCS and containing either Con A (5 μg/ml) or PHA (10 μg/ml) as the mitogen. AVC was added at the initiation of the culture at the dose of 12 μg/ml. The cultures were then incubated in a 5% CO2 atmosphere. Culture supernatants were collected on day 2, 3 and 4 and tested for the content (Units/ml) of IL-2 using a biological assay consisting in measuring the proliferative response of murine CTLL-2 T cells whose growth in culture is strictly dependent on the presence of IL-2 in the medium. The proliferative response (^3H-Thymidine incorporation) of CTLL-2 cells was plotted on a reference curve constructed with a standard amount of IL-2 and the experimental values calculated accordingly.
(§2) The effect on IL-2 production by AVC was not due to a direct proliferative effect on PBL in culture (Table IV) nor did it have a direct effect on IL-2 production by Jurkat or LBRM-33 T lymphoma cells (Table V).

The subject of a further experiment is Jurkat cells. The experiment can be described thus: Production of IL-2 by Jurkat T lymphoma cells. Format: cell-based, human. Here is the method: as §1, §2
The next experiment concerns human PBL. Description: Proliferation of human PBL. In kind it is cell-based. Also on record: unit not given here.
Text: as §2

On to concanavalin A [Con A], for which the “Production of IL-2” value is listed as 28,774 in the experiment on LBRM-33 Cells (24 Hours), 28,880 with LBRM-33 Cells (48 Hours), 3,815 with Jurkat cells (24 Hours) and 10,061 in the experiment with Jurkat cells (48 Hours). The “Proliferation of human PBL” value in the experiment with human PBL (Experiment 1, 24 Hours) was 3,772; in the experiment on human PBL (Experiment 1, 48 Hours), 37,839; with human PBL (Experiment 1, 72 Hours), 42,357; with human PBL (Experiment 2, 24 Hours), 182; with human PBL (Experiment 2, 48 Hours), 23,767.
